According to PMC12957798, “Adaptation of plateau frog peptide: From antimicrobial to angiogenic and proliferative functions” (Journal of Advanced Research, 2025):

Tests used:
HaCaT cells = assay: In vitro scratch wound healing (migration) assay, HaCaT; type: cell-based, Human; details: SC17-2 concentrations exceeding 10 μg/mL, 16 h
p-ERK/ERK = assay: Western blot p-ERK/ERK in HaCaT; type: cell-based, Human; details: SC17-2 20 μg/mL, 24 h (16 h elsewhere in the source), n = 3
Method: (§1) HaCaT was inoculated in 12-well plates (2 × 10^5 cells/well) and cultured for 24 h. Afterwards, HaCaT cells were treated with equal amounts of VEGF, SC17-2, and PBS for 16 h. Cells were washed with PBS, after which the samples were collected and added to 1 mL of RIPA lysate containing protease inhibitors and phosphatase inhibitors and placed on ice for 30 min. Allowed to be after sufficient lysis, the supernatant was centrifuged and collected to determine the protein concentration using a nanodrop, followed by the addition of SDS sampling buffer and heating at 95 °C for 10 min. Samples were loaded and run on a gel block based on the determined sample concentration, and then electrotransferred onto a 0.45 μm PVDF membrane. […] After washing three times with TBST, proteins were visualised and scanned by enhanced chemiluminescence using the ChemiDoc XRS imaging system (Bio-Rad, Hercules, CA, USA).

BALB/c mice = assay: Mouse full-thickness skin wound healing; type: in vivo; details: for wound area: 20 μL daily on wound, relative to day 1, mean ± SEM, n = 7
Method: Mice were anaesthetised with sodium pentobarbital 2 % by intraperitoneal injection (0.1 mL/20 g mouse body weight), and after anaesthesia, hair was removed from the back using depilatory cream and power scissors, and circular full-thickness skin wounds of the same diameter were marked and created on the back of each mouse using circular stamps and red sealant. The mouse wounds were then covered and infiltrated daily with 20 μL of different concentrations of SC17-2 or 20 ng/mL VEGF, and an equal volume of saline was used in the control group. The mice were anaesthetised by isoflurane nebulisation (concentration 2 %) every two days and then placed under an optical camera to photograph the effect of the wound area.
(§2) Sodium pentobarbital (2 %) was utilised for the anaesthetisation of mice by intraperitoneal injection (0.1 mL/20 g of mouse body weight). Subsequent to the induction of anaesthesia, the dorsal hair was removed using depilatory creams and electric scissors. Thereafter, circular full skin wounds of the same diameter were marked and created on the back of each mouse using circular stamps and red stencils. Mouse wounds were then covered and infiltrated daily with 20 μL of different concentrations of SC17-2 or 20 ng/mL of VEGF, and an equal volume of saline was used in the control group. Mice were anaesthetised every two days using isoflurane nebulisation followed by anaesthesia (concentration 2 %), after which they were placed under an optical camera to photograph the effect of wound area. After 13 days of treatment, mice were anaesthetised using isoflurane nebulisation followed by injection of an overdose of sodium pentobarbital to euthanise the mice (200 mg/kg). The wounds and their surrounding tissues were then excised for histopathological evaluation (Masson and H&E staining) and analysed by Enface immunofluorescence staining.

HSF cells = assay: In vitro wound healing (migration) assay, HSF; type: cell-based, Human; details: SC17-2 concentrations exceeding 10 μg/mL, 16 h
TGF-β = assay: Western blot TGF-β in HaCaT; type: cell-based, Human; details: SC17-2 20 μg/mL, 24 h (16 h elsewhere in the source), n = 3
Method: as §1

EGFR = EGFR (Homo sapiens, UniProt P00533); assay: Surface plasmon resonance (SPR); type: binding
Method: The analysis of biomolecular interactions was conducted utilising a Biacore S200 biosensor system (S200, Biacore, China). Briefly, the EGFR (20 μg/mL) was immobilised by amine coupling on the surface of a CM5 sensor chip (29104988, Cytiva, China) with a resonance unit (RU) of approximately 2000, using a sodium acetate buffer (10 mM, pH 4) as the immobilisation solution. In order to assess the affinity of SC17-2 for the epidermal EGFR, SC17-2 was injected at a flow rate of 30 μL/min onto a chip containing immobilised EGFR. The injection of SC17-2 was carried out at a flow rate of 30 μL/min at concentrations ranging from 5 to 500 μg/mL. The RU were recorded. The binding dissociation constants (KD) were determined using BiacoreTM Insight software.

[1] = tested on: Transgenic zebrafish Tg (Fli1a:eGFP); assay: Zebrafish VRI-induced vascular insufficiency model (ISV); type: in vivo; details: VRI 300 ng/mL
Method: Transgenic zebrafish Tg (Fli1a:eGFP) were cultured in culture tanks at 28 °C in a 14 h:10 h light/dark cycle for up to 6 months and subsequently made to produce zygotes by mating only, zebrafish larvae at 24 h post fertilisation (hpf) were induced for 3 h with a VEGFR tyrosine kinase inhibitor II (VRI) to produce a model of vascular insufficiency, after which they were washed to abort the effect of VRI was added to the same number of zebrafish of different groups with SC17-2 or equivalent amount of PBS, and images of zebrafish embryos were captured by Leica fluorescence microscopy, and the ISV index was calculated as follows: ISV index = intact blood vessels × 1 + defective blood vessels × 0.5.

wound tissue = assay: H&E staining of mouse wound sections; type: in vivo
Method: as §2

TGF-α mRNA = assay: qPCR TGF-α mRNA in HaCaT; type: cell-based, Human; details: SC17-2 20 μg/mL, n = 6
Method: HaCaT cells were treated as above, washed twice with PBS and lysed using Trizol for 5 min, after which 200 μL of chloroform was added and shaken vigorously for 30 s. The cells were centrifuged for 15 min to separate the upper and lower layers (12,500 g, 4 °C). The supernatant was vortexed with an equal amount of isopropanol and left to stand for 10 min, and then centrifuged again under the same conditions to retain only the white precipitate. 500 μL of 75 % ethanol was added and centrifuged (12000 rpm, 4 °C, 10 min) and the operation was repeated twice. Afterwards, DEPC was used for dissolution and the concentration was determined by nanodrop. One-step reverse transcription to DNA was performed using 5 × MIX, after which primers and 2 × MIX were added and placed. qPCR was performed (LightCycler96, F. Hoffmann-La Roche, Swiss).

[2] = Antioxidant activity (stated, no separate method); details: no separate method or value printed
[3] = increase in concentration of SC17-2

## SFMPLSIPIMCKMLSKC [SC17-2, peptide of the pleskein family from the skin transcriptome of the frog Nanorana parkeri, made by solid-phase synthesis]
HaCaT cells
  HaCaT migration: notable enhancement
p-ERK/ERK
  ERK phosphorylation: significantly increased ERK phosphorylation
BALB/c mice; SC17-2 20 μg/mL, at times other than day 9
  reduction of wound area vs control, significance: significantly promote the reduction of wound area
BALB/c mice; SC17-2 20 μg/mL, day 9
  reduction of wound area vs control on day 9: non-significant difference
BALB/c mice; after 13 days of treatment
  final reduction in wound area, dose dependence: metrologically dependent on SC17-2
BALB/c mice; day 3, SC17-2 20 μg/mL
  wound area: 77.84 ± 3.34%
BALB/c mice; day 5, SC17-2 20 μg/mL
  wound area: 54.43 ± 2.53%
BALB/c mice; day 13, SC17-2 20 μg/mL vs VEGF
  wound area compared with VEGF: significantly smaller
BALB/c mice; day 13, SC17-2 20 μg/mL
  wound area: 2.65 ± 0.72%
BALB/c mice; days 3 and 5, SC17-2 20 μg/mL
  wound area reduction, ratio to saline-treated control: ~1.3 fold
HSF cells
  HSF migration: notable enhancement
TGF-β
  expression of TGF-β: significantly increase the expression of TGF-β
EGFR
  EGFR binding, dose dependence: binds in a dose-dependent manner
[1]; SC17-2 20 μg/mL, 24 h, n = 6
  ISVs restored, relative to healthy zebrafish: 84.18%
[1]; SC17-2 5, 10, 20 μg/mL, 24 h post-treatment
  number of ISV, dose dependence: significant increase in the number of ISV in a dose-dependent manner
Wound tissue; day 13, SC17-2 no less than 10 μg/mL
  inflammatory cell infiltration in wound tissue: significantly reduced the degree of inflammatory cell infiltration in the wound tissue
Wound tissue; [3]
  epithelial tissue thickness: notable thickening of epithelial tissue
  granulation tissue formation: enhanced granulation tissue formation
TGF-α mRNA
  mRNA expression of TGF-α: significantly elevated
[2]
  antioxidant activity: demonstrated antioxidant activity
